Data published in a melting point compilation (Tetko et al.; mined from patent text by program, amines drawn as free bases though some values may be those of a salt).

SMILES	melting point [°C]
COc1cccc(S(=O)(=O)c2cccc(F)c2C#N)c1	113 to 117
CCOCc1nc2c(N)nc3ccccc3c2n1CCNC(=O)CCCCC1SCC2NC(=O)NC21 (stereo unspecified)	171 to 175
COc1ccc2c(-c3ccc(OCCN4CCCC4)cc3)c(Cc3ccc(Cl)cc3)oc2c1	75
CCCc1c(OCCCS(=O)(=O)c2ccc(C3=CCC(=O)O3)cc2)ccc(C(C)=O)c1O	135 to 136
O=c1n(C(c2ccccc2)(c2ccccc2)c2ccccc2)nc2ccc(Cl)nn12	246 to 247
CN(C)c1ccccc1CC(=O)N1C[C@H]2[C@@H](C1)C(c1ccccc1)(c1ccccc1)CC[C@@H]2O	160
CCCCC(CC)COC(=O)C(C#N)=Cc1ccc(NC(C)=O)cc1 (stereo unspecified)	119
N#CC=C1CCN(c2ccc(N3C[C@H](CNC(=O)CC#N)OC3=O)cc2F)CC1	150 to 152
CC1(N)CN(c2c(F)cc3c(=O)c(C(=O)O)cn(-c4nc(N)c(F)cc4F)c3c2Cl)C1	280
CN(C)c1cc(Br)cc(S(=O)(=O)c2ccc([N+](=O)[O-])cc2)c1	166 to 168
O=C(O)COc1ccc(OC2CCN(c3ccncc3)CC2)cc1	288 to 291
O=C(O)/C=C(\CC(O)CCCCCCc1ccc(Cl)cc1Cl)C(=O)O (stereo unspecified)	92 to 93
CCOC(=O)c1cnc2c(OC)csc2c1Cl	135 to 137
Cc1c(-c2ccc(O)cc2)n(Cc2ccc(C#CCN3CCCC3)cc2)c2ccc(O)cc12	174 to 176
CCOC(=O)C1=C(NC(=O)Nc2ccc(Cl)c(C(=O)OCC)c2)CCCC1	119 to 122
Cc1cccc2c(=O)c3cccc(CBr)c3oc12	171 to 172
CCOC(=O)c1cnn2c(C(F)(F)F)cc(-c3ccc(C(F)(F)F)cc3)cc12	130
CC(=O)N1c2ccc(F)cc2CC1C(N)=O (stereo unspecified)	232 to 235
Fc1ccccc1N1CC2(CCNCC2)c2ccc(Cl)cc21	174 to 176
CC(C)(C)C(=O)n1c(=O)n(CCN2CCC(=C(c3ccc(F)cc3)c3ccc(F)cc3)CC2)c(=O)c2cscc21	69 to 72
CCOCc1nc2c(N)nc3ccccc3c2n1CCOCc1ccccc1	144 to 146
O=C(CN1C(=O)c2ccccc2C1=O)Nc1ccccc1Oc1ccccc1	143
N#Cc1c(N2CCc3ccccc3CC2)nc(N)[nH]c1=O	> 200
CC(C)c1nc(-c2cccc3c2OCO3)cc(-c2ccc(F)cc2)c1C=C(Br)Br	129 to 131

SMILES	melting point [°C]
Fc1cc(I)c2nc[nH]c2c1	210 to 211
O=c1[nH]c2cc(Cl)ccc2cc1-c1ccc(O)cc1	262
Cc1cc(C2(O)C(=O)N(Cc3ccccc3)c3ccccc32)cc(C)c1O[Si](C)(C)C(C)(C)C (stereo unspecified)	147
CN1C(=O)N2C(=NC1(C)C)N(C(=O)Nc1ccc(Cl)cc1)c1ccccc12	206 to 211
CCN(CCc1coc2c(OC)cccc12)C1COc2c(F)ccc(C(N)=O)c2C1 (stereo unspecified)	124 to 132
O=C(O)CN1Cc2ccccc2CC(NC(=O)OCC2c3ccccc3-c3ccccc32)C1=O (stereo unspecified)	117 to 120
CC(C)Oc1cccc2oc(C(=O)O)cc12	148 to 150
CCOC(=O)c1cn(C2COC2)c2c(F)c(F)c(F)c(NCc3ccccc3)c2c1=O	127 to 128
CC(C)(C)c1ccc(-c2cc(C(=O)/C=C/c3ccc(C(=O)O)cc3)cc3c2C(C)(C)CCC3(C)C)cc1	241
COCCc1nc2c(N)nc3ccccc3c2n1CCCCNC(=O)c1cnc2ccccc2n1	85 to 87
CCOC(=O)c1cn(CC)c2cc(F)c(F)c(C)c2c1=O	157 to 159
O=C1CCCc2onc(-c3ccccc3[N+](=O)[O-])c21	125 to 127
CCc1cc2c(-c3ccccc3Cl)c(NC(=O)Nc3ccc(F)cc3F)cnc2s1	217 to 218
CC(=O)N1Cc2cccc3[nH]cc(c23)C1	205 to 206
CC1CC(=O)C1(Cl)CC(Cl)(Cl)Cl (stereo unspecified)	80 to 81
COC(=O)N1C(=O)[C@H](O)[C@@H]1c1ccccc1	91 to 92
CCC(C(C)=CC(CNC(=O)c1nc(C)[nH]c1C)=NO)[N+](=O)[O-] (stereo unspecified)	140 to 141
Nc1nnc(-c2ccc3occ(-c4ccc(OC(F)(F)F)cc4)c3c2)o1	223 to 224
Cc1nc(C)c(C(=O)O)c(-c2ccccc2F)c1C(=O)O	> 285
CCCC1(CCC)CC1(CN)C(=O)O (stereo unspecified)	255 to 257
CC(=O)OC1CCC2(C)C(=CCC3C2CCC2(C=CCl)C(OC(C)=O)CCC32)C1 (stereo unspecified)	155 to 156
COC1CCN(S(=O)(=O)c2ccc(S(N)(=O)=O)cc2C(F)(F)F)CC1	136 to 137
CN1Cc2c(-c3noc(CNCc4ccccc4)n3)ncn2-c2ccccc2C1=O	88 to 92
COC(=O)C1=C(C)NC2=C(C(=O)OC2)C1c1cccc2nc(-c3ccccc3)sc12 (stereo unspecified)	275

SMILES	melting point [°C]
CCCCCCCCCCOc1ccc(-c2ccc(C#CCCC(C)OC)cc2)cc1 (stereo unspecified)	97 to 99
CSC(C)(C)C=NOC(=O)N(C)SN(C)C	48 to 50
COc1ccc(NS(C)(=O)=O)cc1C(=O)NC1CCN(C2CCCCC2)C1 (stereo unspecified)	170 to 172
COCc1nc(N)nc(N)c1-c1c(Cl)cccc1Cl	204 to 207
CCCCCCNC(=O)C=C(C)C=CC=C(C)C=Cc1c(C)cc(OC)c(C)c1C	157 to 158
COc1ccc2c(c1)c(Cc1cc(=O)n(-c3cccc(C)c3)[nH]1)c(C)n2C(=O)c1ccc(Cl)cc1	120 to 122
COc1cc(-n2nc(C)[nH]c2=O)c(F)cc1Cl	193 to 195
Cc1cc(CCCCCOc2ccc(C(N)=S)cc2)on1	156 to 158
Oc1cc(Br)cnc1F	146
COC(=O)c1cccc2oc(SCCCN3CCN(CC(=O)Nc4c(C(C)C)cccc4C(C)C)CC3)nc12	132 to 133
Cn1cc(S(N)(=O)=O)c(=O)c2ccc(Cl)cc21	235 to 237
O=[N+]([O-])c1cc(Cn2ccnc2)ccc1NC1CCCCC1	121
CN1CC=C(c2c[nH]c3ccc(C(=O)O)cc23)CC1	249
CCCN(c1ccc(O)c(Cl)c1)S(=O)(=O)c1ccc(O)cc1	138 to 140
COc1cc(C(=O)N2CCC(CCN3CCC(C(=O)c4nc5ccccc5n4Cc4ccccn4)CC3)(c3ccc(Cl)c(Cl)c3)C2)cc(OC)c1OC (stereo unspecified)	110 to 115
CC(/C=C1/C(=O)N(c2ccccc2)C1c1ccccc1)=NOCCCN1CCCCC1 (stereo unspecified)	120 to 122
COC(=O)CN(c1cc(OCc2ccccc2)cc2ccc(OC)cc12)S(N)(=O)=O	137 to 139
CC(C)(C)C1CCCC(=Cc2ccc(Cl)cc2)C1(O)Cn1cncn1 (stereo unspecified)	171
CC(C)(C)OC(=O)NCC[C@H]1CC[C@H](CO)CC1	75 to 76
CN(C)C1(c2ccccc2)CCC(=CC(=O)NCCCCCc2c[nH]c3ccccc23)CC1 (stereo unspecified)	68 to 72
COC(=O)c1cc2ccc(Br)cc2s1	108 to 110
Cc1c(C(=O)c2cccc(O)c2)sc(N)c1C(=O)OC(C)(C)C	169 to 172
CNC(=O)CC1=CC2(CCCC2)c2ccc(Cl)cc21	190
